Patent US7968103B2, “Compositions comprising fetal hemoglobin and bacterial endotoxin and optionally additional fetal liver components” (priority 2003, dated 2011)

Legend:
[1] = molecular target: CD14 on spleen adherent cells of DBA/2 mice (mouse (cells from DBA/2 mice)) (UniProt P10810); test: cell-based or functional assay
[2] = system: LPS aggregates (Re-LPS from E. coli F515, S-form LPS from Salmonella enterica sv. Minnesota 188233); test: LPS disaggregation, automated native PAGE assay; conditions: LPS 0.275 μg/μl, hemoglobin 0.375 μg/μl, 37° C., 30 min
From the text: Concerning the molecular mechanism of the enhancement of LPS bioactivities by adult mammalian hemoglobin (HbA) preparations, a profound dispersion of the physiologically predominating large LPS aggregates (MW≧10^6 Da) by HbA has been described [Roth, R. J., 1994; Kaca, W., 1994; Roth R. J., 1999]. For analysis of potential analogous effects of highly purified fetal ovine hemoglobin (s-HbF) an automated native PAGE assay was established employing the PhastSystem™ apparatus (Amersham Pharmacia Biotech). Briefly, Re-LPS purified from E. coli F515 or S-form LPS from Salmonella enterica sv. Minnesota 188233 at a final concentration of 0.275 μg/μl was incubated in the presence or absence of the analyzed hemoglobin preparations (0.375 μg/μl) at 37° C. for 30 min. […] The denatured samples were finally analyzed by SDS-PAGE in PhastGel™ Homogeneous-20 gels equipped with PhastGel™ SDS buffer strips (Amersham Pharmacia Biotech) according to the standard protocol of the manufacturer and subsequent silver staining. In comparison to ovine HbF preparations of human HbA (SIGMA-Aldrich), adult ovine hemoglobin (s-HbA) and heme-free fetal ovine hemoglobin (s-HbF/hf) were analysed for LPS disaggregation activities in the native Phast™ PAGE assay.

human PBL = test: TNFα production by human PBL with LPS and Hb; type: cell-based; conditions: LPS 200 ng/ml
Description: PBL were obtained by Ficoll-hypaque purification from volunteers. Cells were incubated in triplicate in 2 ml medium (with 10% commercial human AB serum and 200 ng/ml LPS) at a concentration of 1×10^6/ml. Medium contained in addition adult or fetal (sheep) hemoglobin at the various concentrations shown. Supernatants were harvested 24 hrs later to assay in triplicate for TNFα by ELISA. […] Control cultures (no LPS, LPS only, or fetal/adult Hb only) produced levels <50 ng/ml, <100 ng/ml or <65 ng/ml respectively.
PBL were obtained by Ficoll-hypaque purification from volunteers. Cells were incubated in 2 ml medium (with 10% commercial human AB serum). Cells were incubated in the presence/absence of 500 ng/ml adult or fetal sheep hemoglobin α- or γ-chain. Control cells were incubated in the absence of hemoglobin protein (far left of Figure). In addition, each group was further subdivided into triplicates which received no additional materials (open bars), or 200 ng/ml LPS (closed bars). Supernatants were harvested 24 hrs later to assay (in triplicate) for TNFα by ELISA. Data in panels A and B are independent studies using different volunteer donors (mean ±SD). […]

[3] = system: S-form LPS, Re-LPS, Lipid A; test: LPS/Lipid A-specific adsorption assay; type: binding
Description: In order to identify the LPS or Lipid A-interacting protein(s) in CLP1b a LPS/Lipid A-specific adsorption assay was developed. In this screening system polyvinylchloride 96-well microtiter plates (Becton Dickinson) were coated for 14 h at 4° C. with S-form LPS from Salmonella enterica sv. Minnesota 188233, Re-LPS from E. coli F515 or a Lipid A preparation derived from the E. coli strain solubilized as triethylamine (TEA) salts in LAL reagent water (BioWhittaker) at concentrations of 5 μg/ml or 2 μg/ml, respectively. As a control a series of wells was similarly treated with LAL reagent water without the addition of LPS or Lipid A. Subsequently, the solutions were decanted and the wells were rinsed four times with Dulbeccos phosphate-buffered saline (D-PBS; Lifetechnologies) without magnesium or calcium salts. […] In addition, the lyophilized samples from the prior CLP1b incubation and the following sequence of washing steps were resuspended in 50 μl SDS-Sample buffer and the compositions of the collected samples from the adsorption assay were analyzed by SDS-PAGE in 15% (w/v) polyacrylamide gels and silver staining according to the method described by Heukeshoven [Heukeshoven, J., 1986].

mouse spleen cells = test: Cytokine production by mouse spleen cells with LPS and Hb; type: cell-based, C57BL/6 mice; conditions: murine spleen cells, LPS 200 ng/ml
Description: Spleen cells were pooled from 3 C57BL/6 donors (8-week male). Cells were incubated in triplicate in 2 ml medium (with 10% fetal calf serum and 200 ng/ml LPS) at a concentration of 1×10^6/ml. Medium contained in addition adult or fetal (sheep) hemoglobin at the various concentrations shown. Supernatants were harvested 24 hrs later to assay in triplicate for TNFα by ELISA. […] Control cultures (no LPS, LPS only, or fetal/adult Hb only) produced levels <50 ng/ml, <70 ng/ml or <50 ng/ml respectively.
Spleen cells were pooled from 3 C57BL/6 donors (8-week male). Cells were incubated in triplicate in 2 ml medium (with 10% fetal calf serum and 200 ng/ml LPS) at a concentration of 1×10^6/ml. Medium contained in addition adult or fetal (sheep) hemoglobin at the various concentrations shown. Supernatants were harvested 24 hrs later to assay for IL-6 in triplicate by ELISA. […] Control cultures (no LPS, LPS only, or fetal/adult Hb only) produced levels <100 ng/ml, <120 ng/ml or <100 ng/ml respectively.
In this experiment the cloned γ- and β-chain of sheep Hb were assayed as CHO extracts (20 μg/ml) together with LPS (100 ng/ml) to stimulate murine spleen cells in vitro for the production of TNFα (detection at 24 hr by ELISA) […]

[4] = Bioenhancing effect on LPS (data not shown)
adherent spleen cells = test: Co-stimulation of adherent spleen cells (macrophages) with LPS/CLP2p and recombinant cytokines, cytokine ELISA; type: cell-based, DBA/2 mice; conditions: 18 h; LPS 1 μg/ml, CLP2p 0.3 μg/ml, rIL-12/rIL-13 0.1 μg/ml, anti-IL-12 10 μg/ml
Description: LPS, as well as many defined cytokines, including IL-1, IL-6, IL-10, IL-12, IL-13 and IFNγ, stimulate macrophages to produce other cytokines in vitro and in vivo. […] In addition, cells were treated with CLP2p, or with cytokines, in the presence of monoclonal antibodies to cytokines. Cytokine production was measured by ELISA (all reagents purchased by Pharmingen, San Diego, USA).
IL-12 is a primary physiological stimulus for cytokine production by macrophages during inflammation [Wang, J., 1999], and LPS may mediate its stimulatory effects by inducing IL-12 production. Similarly, IL-13 may be a physiologic counter-regulator of stimulation by IL-12 [Machado, F., 1998]. […] In some cultures a monoclonal antibody to IL-12 was included. (Recombinant cytokines were obtained according to conventional protocols.) Data pooled from 3 such studies are shown in Table 1.

Chain of UniProt P10810 (P10810 16-336): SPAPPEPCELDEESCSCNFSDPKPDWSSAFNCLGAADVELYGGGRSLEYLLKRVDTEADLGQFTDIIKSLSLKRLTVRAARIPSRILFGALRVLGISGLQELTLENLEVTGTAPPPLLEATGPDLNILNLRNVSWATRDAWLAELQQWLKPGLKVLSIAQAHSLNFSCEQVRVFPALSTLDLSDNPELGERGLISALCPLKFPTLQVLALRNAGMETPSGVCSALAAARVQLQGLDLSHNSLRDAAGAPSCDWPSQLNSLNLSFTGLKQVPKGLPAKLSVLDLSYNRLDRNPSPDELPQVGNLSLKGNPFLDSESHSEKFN

## commercial anti-CD14 monoclonal antibody (UCHM-1, Sigma)
[1]
  Inhibition % of TNF-α production by spleen adherent cells; stimulus CLP2p (0.3 µg/ml), anti-CD14 2.5 µg/ml: 46%
  Inhibition % of TNF-α production by spleen adherent cells; stimulus CLP2p (0.3 µg/ml), anti-CD14 10 µg/ml: 80%
  Inhibition % of TNF-α production by spleen adherent cells; stimulus LPS (1 µg/ml), anti-CD14 2.5 µg/ml: 58%
  Inhibition % of TNF-α production by spleen adherent cells; stimulus LPS (1 µg/ml), anti-CD14 10 µg/ml: 81%

## fetal Hb: purified fetal sheep hemoglobin, α and γ chains (α2γ2)
[2]
  LPS disaggregation activity: stronger LPS disaggregation activities
Human PBL
  synergy with LPS for the production of TNFα: striking synergy
[3]
  LPS/Lipid A interaction in CLP1b: major LPS/Lipid A-interacting component
Mouse spleen cells
  synergy with LPS in the production of TNFα or IL-6: clear evidence for a synergy

## myoglobin
[4]
  bioenhancing effect: not observed

## rIL-13: recombinant cytokine IL-13 [reference compound]
Adherent spleen cells
  IL-1 level in culture supernatant: 15 ng/mL
  IL-6 level in culture supernatant: 1040 pg/mL
  TNFα level in culture supernatant: 40 ng/mL

B1: rIL-12: recombinant cytokine IL-12 (protein, UniProt P29459 23-219; P29460 23-328, looked up)
Interleukin-12 subunit alpha: RNLPVATPDPGMFPCLHHSQNLLRAVSNMLQKARQTLEFYPCTSEEIDHEDITKDKTSTVEACLPLELTKNESCLNSRETSFITNGSCLASRKTSFMMALCLSSIYEDLKMYQVEFKTMNAKLLMDPKRQIFLDQNMLAVIDELMQALNFNSETVPQKSSLEEPDFYKTKIKLCILLHAFRIRAVTIDRVMSYLNAS
Interleukin-12 subunit beta: IWELKKDVYVVELDWYPDAPGEMVVLTCDTPEEDGITWTLDQSSEVLGSGKTLTIQVKEFGDAGQYTCHKGGEVLSHSLLLLHKKEDGIWSTDILKDQKEPKNKTFLRCEAKNYSGRFTCWWLTTISTDLTFSVKSSRGSSDPQGVTCGAATLSAERVRGDNKEYEYSVECQEDSACPAAEESLPIEVMVDAVHKLKYENYTSSFFIRDIIKPDPPKNLQLKPLKNSRQVEVSWEYPDTWSTPHSYFSLTFCVQVQGKSKREKKDRVFTDKTSATVICRKNASISVRAQDRYYSSSWSEWASVPCS
Adherent spleen cells
  IL-1 level in culture supernatant: 235 ng/mL
  IL-6 level in culture supernatant: 359 pg/mL
  TNFα level in culture supernatant: 149 ng/mL
